Measurements published in ChEMBL document CHEMBL1201862, “PubChem BioAssay data set” (2004).
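Interpolation was linear, between the two tested concentrations surrounding the appropriate level; five concentrations were tested over 48 hours in 96-well plates. GI50: concentration for 50% inhibition of growth.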 Calls of active or inactive are those of the source. No stated cut-off is given here; in the data, active = GI50 up to about 1.1 µM and inactive = higher.

Legend:
Experiment in all cases: NCI anticancer screen, dose series, 48 h
[1] = test system: SW-620
[2] = test system: NCI-H226
[3] = test system: TK-10
[4] = test system: LOX IMVI
[5] = test system: 786-0
[6] = test system: OVCAR-3
[7] = test system: SN12C
[8] = test system: SNB-78
[9] = test system: OVCAR-8
[10] = test system: DMS-114
[11] = test system: M14
[12] = test system: RXF 393
[13] = test system: SK-MEL-28
[14] = test system: HCT-116
[15] = test system: HCT-15
[16] = test system: HT-29
[17] = test system: SR
[18] = test system: HCC 2998
[19] = test system: A498

| Structure (SMILES) | GI50 [1] | GI50 [2] | GI50 [3] | GI50 [4] | GI50 [5] | GI50 [6] | GI50 [7] | GI50 [8] | GI50 [9] | GI50 [10] | GI50 [11] | GI50 [12] | GI50 [13] | GI50 [14] | GI50 [15] [µM] | GI50 [16] | GI50 [17] | GI50 [18] | GI50 [19] |
| --- | --- | --- | --- | --- | --- | --- | --- | --- | --- | --- | --- | --- | --- | --- | --- | --- | --- | --- | --- |
| Cc1ccc(S(=O)(=O)OC(c2ccc(Cl)cc2Cl)C2OC(=O)c3ccccc32)cc1 (stereo unspecified) | 71.4 µM (inactive) | 19.7 µM (inactive) | > 100 µM (inactive) | > 100 µM (inactive) | > 100 µM (inactive) | 40.4 µM (inactive) | > 100 µM (inactive) | > 100 µM (inactive) | > 100 µM (inactive) | 45.8 µM (inactive) | > 100 µM (inactive) | 67.1 µM (inactive) | > 100 µM (inactive) | 30.8 µM (inactive) | 56.5 | 38.6 µM (inactive) | 30.6 µM (inactive) | – | – |
| CCCCCCCCCCCCCCCCc1c(O)nc(NN)nc1C(=O)OC | > 50 µM (inactive) | – | > 50 µM (inactive) | > 50 µM (inactive) | > 50 µM (inactive) | > 50 µM (inactive) | > 50 µM (inactive) | > 50 µM (inactive) | > 50 µM (inactive) | > 50 µM (inactive) | > 50 µM (inactive) | > 50 µM (inactive) | > 50 µM (inactive) | > 50 µM (inactive) | > 50 | > 50 µM (inactive) | – | > 50 µM (inactive) | > 50 µM (inactive) |
| O=C1CC(c2c(-c3ccccc3)[nH]c3ccccc23)C(=O)N1c1ccccc1 (stereo unspecified) | > 100 µM (inactive) | > 100 µM (inactive) | > 100 µM (inactive) | – | > 100 µM (inactive) | 61.5 µM (inactive) | – | > 100 µM (inactive) | > 100 µM (inactive) | 49.5 µM (inactive) | > 100 µM (inactive) | 27.4 µM (inactive) | > 100 µM (inactive) | 41.9 µM (inactive) | 61.8 | > 100 µM (inactive) | – | > 100 µM (inactive) | > 100 µM (inactive) |
| COC1(OC)CC2OC1C1N=NN(C(=O)OC(C)(C)C)C21 (stereo unspecified) | 57.5 µM (inactive) | > 100 µM (inactive) | – | > 100 µM (inactive) | > 100 µM (inactive) | 49.3 µM (inactive) | > 100 µM (inactive) | > 100 µM (inactive) | – | 67 µM (inactive) | > 100 µM (inactive) | > 100 µM (inactive) | > 100 µM (inactive) | – | 43.7 | > 100 µM (inactive) | – | > 100 µM (inactive) | > 100 µM (inactive) |
| COc1ccc2c(c1OC)C(C=C(c1ccccc1)c1ccccc1)CN(C)C2 (stereo unspecified) | 13.4 µM (inactive) | 22.6 µM (inactive) | 22 µM (inactive) | – | 16.7 µM (inactive) | 12.8 µM (inactive) | 25.5 µM (inactive) | 34.6 µM (inactive) | 20.4 µM (inactive) | 13.9 µM (inactive) | 14.5 µM (inactive) | – | 22.4 µM (inactive) | 8.39 µM (inactive) | 15 | 6.82 µM (inactive) | – | 24.9 µM (inactive) | 17 µM (inactive) |
| CC(=O)OCCOCn1c2ccccc2c2c3c(c4c5ccccc5n(COCCOC(C)=O)c4c21)C(=O)N(Cc1ccccc1)C3=O | > 100 µM (inactive) | > 100 µM (inactive) | > 100 µM (inactive) | > 100 µM (inactive) | > 100 µM (inactive) | – | > 100 µM (inactive) | > 100 µM (inactive) | > 100 µM (inactive) | – | > 100 µM (inactive) | > 100 µM (inactive) | > 100 µM (inactive) | > 100 µM (inactive) | > 100 | > 100 µM (inactive) | – | > 100 µM (inactive) | > 100 µM (inactive) |
| Cc1ccc(SSCCCCS(=O)O)cc1 | 17.5 µM (inactive) | – | 19.9 µM (inactive) | 9.79 µM (inactive) | 32 µM (inactive) | 17.8 µM (inactive) | 11.4 µM (inactive) | 25.1 µM (inactive) | > 10 µM (inactive) | 11.5 µM (inactive) | 16.4 µM (inactive) | 12.7 µM (inactive) | 17.1 µM (inactive) | 20.7 µM (inactive) | 17.5 | 21.7 µM (inactive) | – | 25.1 µM (inactive) | 19.1 µM (inactive) |
| Cc1cn(C2C=CC(=O)C(C)O2)c(=O)[nH]c1=O (stereo unspecified) | 15.1 µM (inactive) | 19.5 µM (inactive) | 15.1 µM (inactive) | 13.2 µM (inactive) | 18 µM (inactive) | 17.4 µM (inactive) | 15.9 µM (inactive) | 16.7 µM (inactive) | 18.6 µM (inactive) | – | 15.3 µM (inactive) | – | 14.9 µM (inactive) | 12.2 µM (inactive) | – | 17.1 µM (inactive) | 18.3 µM (inactive) | – | 38.1 µM (inactive) |
| Nc1nc(O)c2nc(N)n(Cc3ccccc3)c2n1 | > 100 µM (inactive) | – | > 100 µM (inactive) | > 100 µM (inactive) | > 100 µM (inactive) | > 100 µM (inactive) | > 100 µM (inactive) | – | > 100 µM (inactive) | > 100 µM (inactive) | > 100 µM (inactive) | > 100 µM (inactive) | > 100 µM (inactive) | > 100 µM (inactive) | > 100 | > 100 µM (inactive) | > 100 µM (inactive) | > 100 µM (inactive) | > 100 µM (inactive) |
